Results taken from ChEMBL document CHEMBL5465560, “Selectivity Literature for EUbOPEN Chemogenomic Library” (2024).
Blank lines part the entries; values can stand above or below the compound they belong to.

Columns and labels:
[1] = molecular target: T1, Muscle, skeletal receptor tyrosine-protein kinase (Homo sapiens) (UniProt O15146); experiment: Selectivity interaction (Kinase panel (Invitrogen)) EUB0000639a MUSK; conditions: at 200 nM
T1 sequence (whole entry): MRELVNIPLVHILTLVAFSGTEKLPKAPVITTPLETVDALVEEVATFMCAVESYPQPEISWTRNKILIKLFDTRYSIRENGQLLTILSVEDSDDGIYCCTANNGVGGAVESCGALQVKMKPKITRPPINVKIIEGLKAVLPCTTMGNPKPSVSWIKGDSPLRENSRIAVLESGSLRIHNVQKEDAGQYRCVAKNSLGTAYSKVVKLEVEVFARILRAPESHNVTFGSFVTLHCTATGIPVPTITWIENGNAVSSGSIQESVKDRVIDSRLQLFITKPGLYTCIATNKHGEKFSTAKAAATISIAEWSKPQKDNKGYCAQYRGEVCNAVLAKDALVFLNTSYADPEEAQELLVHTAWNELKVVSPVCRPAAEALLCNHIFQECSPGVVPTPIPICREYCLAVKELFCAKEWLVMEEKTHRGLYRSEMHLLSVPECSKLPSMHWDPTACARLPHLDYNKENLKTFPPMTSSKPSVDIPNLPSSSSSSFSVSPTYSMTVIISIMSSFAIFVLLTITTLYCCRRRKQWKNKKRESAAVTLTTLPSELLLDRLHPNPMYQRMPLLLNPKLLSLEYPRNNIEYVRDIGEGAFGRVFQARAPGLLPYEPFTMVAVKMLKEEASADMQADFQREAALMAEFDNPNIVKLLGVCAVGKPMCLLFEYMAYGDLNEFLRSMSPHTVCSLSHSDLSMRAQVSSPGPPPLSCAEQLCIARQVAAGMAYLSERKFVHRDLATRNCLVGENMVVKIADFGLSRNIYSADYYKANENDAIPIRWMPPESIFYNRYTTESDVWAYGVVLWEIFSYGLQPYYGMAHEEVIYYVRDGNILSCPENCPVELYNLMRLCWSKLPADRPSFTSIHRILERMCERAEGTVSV

[2] = molecular target: Interferon-induced, double-stranded RNA-activated protein kinase (Homo sapiens) (UniProt P19525); experiment: Selectivity interaction (ActivX KiNativ screen (kinase selectivity in THP-1 cell lysates)) EUB0000639a EIF2AK2; assay type: subcellular; conditions: lysate
Sequence of Interferon-induced, double-stranded RNA-activated protein kinase (Homo sapiens) (P19525 whole entry): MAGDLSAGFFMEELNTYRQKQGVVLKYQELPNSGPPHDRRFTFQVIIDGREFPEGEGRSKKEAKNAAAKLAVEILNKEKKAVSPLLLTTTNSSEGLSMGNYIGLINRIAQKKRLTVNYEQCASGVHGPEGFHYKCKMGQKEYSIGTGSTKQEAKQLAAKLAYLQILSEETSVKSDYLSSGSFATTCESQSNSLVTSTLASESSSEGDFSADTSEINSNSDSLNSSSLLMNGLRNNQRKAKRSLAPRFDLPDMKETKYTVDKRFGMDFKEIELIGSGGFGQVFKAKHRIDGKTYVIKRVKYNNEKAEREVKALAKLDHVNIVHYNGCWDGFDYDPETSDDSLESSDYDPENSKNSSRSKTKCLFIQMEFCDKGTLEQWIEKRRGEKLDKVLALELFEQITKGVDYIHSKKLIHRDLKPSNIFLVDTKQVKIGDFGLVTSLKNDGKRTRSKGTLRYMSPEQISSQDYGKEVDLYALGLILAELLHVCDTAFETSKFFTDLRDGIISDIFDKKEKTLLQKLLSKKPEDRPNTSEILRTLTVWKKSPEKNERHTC

[3] = molecular target: T2, Histone-lysine N-methyltransferase SUV39H1 (Homo sapiens) (UniProt O43463); experiment: Selectivity interaction (Methyltransferase screen (radiometric assays, panel of 8 PRMTs, 21 protein lysine methyltransferases, 3 DNA methyltransferases, and one RNA methyltransferase)) EUB0000272b SUV39H1
T2 sequence (whole entry): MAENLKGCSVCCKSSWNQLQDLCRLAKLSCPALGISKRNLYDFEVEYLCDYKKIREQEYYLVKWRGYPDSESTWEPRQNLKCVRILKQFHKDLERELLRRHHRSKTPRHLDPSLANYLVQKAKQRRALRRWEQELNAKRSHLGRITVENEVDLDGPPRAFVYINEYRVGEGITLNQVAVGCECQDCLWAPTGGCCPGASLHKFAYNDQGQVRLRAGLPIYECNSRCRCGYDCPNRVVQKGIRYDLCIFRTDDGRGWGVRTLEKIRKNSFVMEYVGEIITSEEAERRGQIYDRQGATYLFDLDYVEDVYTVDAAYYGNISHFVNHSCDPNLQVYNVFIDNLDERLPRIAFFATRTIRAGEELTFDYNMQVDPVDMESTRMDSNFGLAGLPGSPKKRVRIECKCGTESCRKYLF

[4] = molecular target: Serine/threonine-protein kinase SIK3 (Homo sapiens) (UniProt Q9Y2K2); experiment: Selectivity interaction (KinomeScan (DiscoverX)) EUB0000229b SIK3; conditions: at 10 µM
Sequence of Serine/threonine-protein kinase SIK3 (Homo sapiens) (Q9Y2K2 whole entry, looked up): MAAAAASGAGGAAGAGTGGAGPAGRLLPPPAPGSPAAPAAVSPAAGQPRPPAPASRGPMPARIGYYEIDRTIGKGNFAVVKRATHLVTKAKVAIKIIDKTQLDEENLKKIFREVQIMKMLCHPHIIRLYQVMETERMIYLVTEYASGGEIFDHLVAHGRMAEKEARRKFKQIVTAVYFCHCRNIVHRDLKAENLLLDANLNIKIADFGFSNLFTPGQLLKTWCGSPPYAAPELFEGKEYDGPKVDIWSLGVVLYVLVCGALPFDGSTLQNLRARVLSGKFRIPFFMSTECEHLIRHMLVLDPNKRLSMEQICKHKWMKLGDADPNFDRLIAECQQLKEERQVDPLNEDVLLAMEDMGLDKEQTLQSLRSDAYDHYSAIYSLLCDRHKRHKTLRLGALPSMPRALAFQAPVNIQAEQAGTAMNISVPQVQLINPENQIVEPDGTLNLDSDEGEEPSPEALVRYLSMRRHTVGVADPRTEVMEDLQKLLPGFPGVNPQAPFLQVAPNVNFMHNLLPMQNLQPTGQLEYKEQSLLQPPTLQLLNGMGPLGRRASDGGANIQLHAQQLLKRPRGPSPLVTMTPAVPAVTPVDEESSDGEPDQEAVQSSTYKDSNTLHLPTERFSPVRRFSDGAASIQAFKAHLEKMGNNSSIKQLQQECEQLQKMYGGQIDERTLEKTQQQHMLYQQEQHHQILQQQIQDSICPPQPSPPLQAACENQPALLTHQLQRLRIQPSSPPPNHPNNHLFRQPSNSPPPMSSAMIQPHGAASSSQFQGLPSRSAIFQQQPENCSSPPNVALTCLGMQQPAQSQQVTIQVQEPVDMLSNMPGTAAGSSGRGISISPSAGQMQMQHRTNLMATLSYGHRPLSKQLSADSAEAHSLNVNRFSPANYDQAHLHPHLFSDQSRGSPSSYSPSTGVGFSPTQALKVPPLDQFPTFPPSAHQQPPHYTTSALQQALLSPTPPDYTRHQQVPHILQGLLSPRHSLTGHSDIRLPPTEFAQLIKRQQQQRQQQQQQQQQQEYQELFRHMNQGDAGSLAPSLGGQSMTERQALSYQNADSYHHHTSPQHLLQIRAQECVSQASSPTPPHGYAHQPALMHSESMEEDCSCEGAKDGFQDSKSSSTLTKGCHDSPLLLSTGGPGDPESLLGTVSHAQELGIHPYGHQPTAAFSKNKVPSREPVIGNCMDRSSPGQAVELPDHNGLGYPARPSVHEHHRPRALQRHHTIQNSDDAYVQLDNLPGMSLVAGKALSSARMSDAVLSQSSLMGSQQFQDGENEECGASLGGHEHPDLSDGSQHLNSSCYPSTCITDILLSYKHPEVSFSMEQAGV

[5] = molecular target: Serine/threonine-protein kinase 35 (Homo sapiens) (UniProt Q8TDR2); experiment: Selectivity interaction (KinomeScan (DiscoverX)) EUB0000618a STK35; conditions: at 10 µM
Sequence of Serine/threonine-protein kinase 35 (Homo sapiens) (Q8TDR2 whole entry): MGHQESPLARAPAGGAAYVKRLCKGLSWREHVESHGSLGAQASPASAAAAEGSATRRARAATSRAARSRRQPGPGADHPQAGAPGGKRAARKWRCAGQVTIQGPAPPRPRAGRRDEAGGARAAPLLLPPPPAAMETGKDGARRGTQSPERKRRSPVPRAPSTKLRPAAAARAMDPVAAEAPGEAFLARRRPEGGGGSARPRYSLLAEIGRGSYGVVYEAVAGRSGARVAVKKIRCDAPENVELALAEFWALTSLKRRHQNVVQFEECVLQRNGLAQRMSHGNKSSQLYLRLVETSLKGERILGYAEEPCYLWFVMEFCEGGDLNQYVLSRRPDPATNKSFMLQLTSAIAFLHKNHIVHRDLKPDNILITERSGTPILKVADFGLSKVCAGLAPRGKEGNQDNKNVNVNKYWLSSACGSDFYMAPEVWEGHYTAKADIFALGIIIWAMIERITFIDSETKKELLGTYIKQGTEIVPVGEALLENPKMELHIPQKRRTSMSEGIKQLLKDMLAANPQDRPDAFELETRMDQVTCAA

[6] = molecular target: T3, Dual specificity mitogen-activated protein kinase kinase 4 (Homo sapiens) (UniProt P45985); experiment: Selectivity interaction (KinomeScan (DiscoverX)) EUB0000666a MAP2K4; conditions: at 10 µM
T3 sequence (whole entry): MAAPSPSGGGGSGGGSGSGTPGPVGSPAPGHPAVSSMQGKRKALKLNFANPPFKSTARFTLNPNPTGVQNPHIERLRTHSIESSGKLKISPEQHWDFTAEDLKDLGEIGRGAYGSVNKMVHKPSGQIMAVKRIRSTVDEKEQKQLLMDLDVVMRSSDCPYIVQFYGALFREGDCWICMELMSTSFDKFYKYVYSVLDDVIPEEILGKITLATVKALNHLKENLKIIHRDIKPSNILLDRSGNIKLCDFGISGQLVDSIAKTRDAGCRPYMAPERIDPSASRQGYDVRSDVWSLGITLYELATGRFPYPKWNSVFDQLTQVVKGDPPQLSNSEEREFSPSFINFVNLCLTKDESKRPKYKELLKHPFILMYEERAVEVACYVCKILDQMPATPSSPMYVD

[7] = molecular target: T4, 3-phosphoinositide-dependent protein kinase 1 (Homo sapiens) (UniProt O15530); experiment: Selectivity interaction (KinomeScan (DiscoverX)) EUB0000666a PDPK1; conditions: at 10 µM
T4 sequence (whole entry): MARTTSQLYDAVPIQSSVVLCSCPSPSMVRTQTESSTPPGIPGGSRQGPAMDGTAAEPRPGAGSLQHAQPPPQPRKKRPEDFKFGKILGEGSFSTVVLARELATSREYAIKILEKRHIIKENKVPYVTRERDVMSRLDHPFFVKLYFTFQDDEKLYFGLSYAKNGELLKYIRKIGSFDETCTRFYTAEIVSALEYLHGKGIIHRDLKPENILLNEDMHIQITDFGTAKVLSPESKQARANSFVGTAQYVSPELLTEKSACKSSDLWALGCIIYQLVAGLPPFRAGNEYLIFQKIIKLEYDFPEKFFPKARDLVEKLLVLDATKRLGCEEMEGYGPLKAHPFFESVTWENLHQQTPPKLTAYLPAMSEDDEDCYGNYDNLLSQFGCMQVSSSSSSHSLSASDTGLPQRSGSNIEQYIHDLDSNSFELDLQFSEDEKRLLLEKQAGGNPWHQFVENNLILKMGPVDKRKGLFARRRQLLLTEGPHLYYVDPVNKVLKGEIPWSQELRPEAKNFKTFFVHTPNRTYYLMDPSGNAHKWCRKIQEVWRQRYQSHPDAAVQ

[8] = molecular target: Glutamate receptor ionotropic, NMDA 2B (Homo sapiens) (UniProt Q13224); experiment: Selectivity interaction (Panel of kinases, GPCRs, ion channels and transporters (enzymatic assay)) EUB0000223bCl GRIN2B
Sequence of Glutamate receptor ionotropic, NMDA 2B (Homo sapiens) (Q13224 27-1484 limits assumed): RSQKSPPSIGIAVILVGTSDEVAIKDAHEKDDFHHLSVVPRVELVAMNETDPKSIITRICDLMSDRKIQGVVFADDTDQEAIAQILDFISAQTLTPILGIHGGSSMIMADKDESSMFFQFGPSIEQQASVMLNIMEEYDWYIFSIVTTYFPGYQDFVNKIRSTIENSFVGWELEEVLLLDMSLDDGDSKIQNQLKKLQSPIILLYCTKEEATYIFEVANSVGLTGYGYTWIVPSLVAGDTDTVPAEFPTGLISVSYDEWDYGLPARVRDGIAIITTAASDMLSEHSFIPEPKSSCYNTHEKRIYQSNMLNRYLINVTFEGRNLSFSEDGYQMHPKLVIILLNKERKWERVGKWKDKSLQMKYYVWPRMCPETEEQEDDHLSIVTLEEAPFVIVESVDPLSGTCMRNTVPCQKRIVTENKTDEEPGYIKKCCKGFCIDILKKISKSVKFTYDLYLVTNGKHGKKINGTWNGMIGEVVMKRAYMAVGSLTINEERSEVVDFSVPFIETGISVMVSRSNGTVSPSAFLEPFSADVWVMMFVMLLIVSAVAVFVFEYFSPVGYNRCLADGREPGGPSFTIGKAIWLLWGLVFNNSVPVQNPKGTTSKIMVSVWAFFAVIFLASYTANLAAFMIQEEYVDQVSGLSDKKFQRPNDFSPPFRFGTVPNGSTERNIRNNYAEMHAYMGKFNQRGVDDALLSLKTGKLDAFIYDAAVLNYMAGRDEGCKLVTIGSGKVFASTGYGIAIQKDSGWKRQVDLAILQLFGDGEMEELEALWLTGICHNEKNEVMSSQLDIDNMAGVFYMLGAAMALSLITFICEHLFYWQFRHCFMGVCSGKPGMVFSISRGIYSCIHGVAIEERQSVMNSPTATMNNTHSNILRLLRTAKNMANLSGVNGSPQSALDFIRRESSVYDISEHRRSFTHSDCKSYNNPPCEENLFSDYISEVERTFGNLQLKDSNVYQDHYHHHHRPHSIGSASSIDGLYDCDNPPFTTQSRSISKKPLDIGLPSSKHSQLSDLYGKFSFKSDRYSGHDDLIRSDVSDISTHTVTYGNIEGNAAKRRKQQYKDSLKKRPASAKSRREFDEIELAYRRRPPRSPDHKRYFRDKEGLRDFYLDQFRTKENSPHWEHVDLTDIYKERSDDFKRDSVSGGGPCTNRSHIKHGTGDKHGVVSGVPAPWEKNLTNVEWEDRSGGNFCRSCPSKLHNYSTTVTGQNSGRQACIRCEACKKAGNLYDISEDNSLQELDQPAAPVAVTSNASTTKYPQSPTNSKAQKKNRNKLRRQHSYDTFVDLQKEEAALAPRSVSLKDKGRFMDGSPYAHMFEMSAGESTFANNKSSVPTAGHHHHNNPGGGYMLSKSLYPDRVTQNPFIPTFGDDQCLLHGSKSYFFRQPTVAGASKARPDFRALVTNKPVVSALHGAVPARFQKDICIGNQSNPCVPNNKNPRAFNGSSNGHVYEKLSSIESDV

% of inhibition [1]: -2.77%
% of inhibition ([2]; at 0.01 µM): 0.5%
% of inhibition ([2]; at 0.04 µM): -0.3%
% of inhibition ([2]; at 0.2 µM): 7.5%
% of inhibition ([2]; at 1 µM): -3.5%
% of inhibition ([2]; at 5 µM): -12.9%
Compound: CC[C@@H]1[C@H](F)C(=O)N[C@@H]1COc1nccc2cc(C(N)=O)c(OC)cc12 [ZIMLOVISERTIB]

% of activity ([3]; at 1 µM): 100%
% of activity ([3]; at 10 µM): 96.7%
Compound: Cc1cc(C)cc([C@H]2c3cc(C)ccc3NC(=O)CN2C(=O)c2ccc(Br)s2)c1

Compound: COc1cc(N(C)c2ccnc3ccc(C(F)(F)F)cc23)cc(OC)c1OC
% binding [4]: 74%

Compound: O[C@H]1CC[C@H](Nc2ncc3nc(Nc4c(F)cc(F)cc4F)n([C@H]4CCOC4)c3n2)CC1
% of control [5]: 100%

Compound: O=C(NOC[C@H](O)CO)c1ccc(F)c(F)c1Nc1ccc(I)cc1F
% of control [6]: 83%
% of control [7]: 71%

Compound: COc1cc(C(=O)N2CC[C@@H](O)[C@@H](N)C2)cc2nc(-c3cc4ccccc4n3CC3CC3)n(C)c12
pXC50 [8]: 4.8 M
